35 compounds from ChEMBL document CHEMBL5528074 (J Med Chem, 2024) can be followed below.

Series [1] has as its target T1, G-protein coupled receptor 183 (Homo sapiens, UniProt P32249).
Description: Antagonist activity at GPR183 (unknown origin) transfected in HEK293 cells incubated for 30 mins by Glosensor cAMP assay
Series [2] in a line: Metabolic stability in mouse liver microsomes assessed as intrinsic clearance. Conditions: read-out: CLH. It is filed as ADME, Microsome.
The target in series [3] is T1, G-protein coupled receptor 183. In words: Antagonist activity at GPR183 (unknown origin) incubated for 30 mins by calcium mobilization assay. The format is functional.
Series [4] has the same target. In words: Agonist activity at GPR183 (unknown origin) transfected in HEK293 cells assessed as reduction in forskolin induced cAMP generation incubated for 30 mins by Glosensor cAMP assay. It is filed as functional, cell-based. A general note: Cyclic AMP is a second messenger, typically raised through Gs and lowered through Gi signalling.
Series [5] shares this target. In words: Agonist activity at GPR183 (unknown origin) transfected in HEK293 cells cotransfected with CRE-luciferase plasmid assessed as impairment of forskolin induced luciferase activity preincubated for 30 mins followed by forskolin induction and measured after 4 hrs by dual luciferase assay. It is filed as functional, cell-based.
The target is the same in series [6]. The series can be described thus: Agonist activity at GPR183 (unknown origin) transfected in HEK293 cells co-expressing LgBiT-fused SmBiT-beta-arrestin assessed as beta-arrestin recruitment using nanoluciferase as substrate incubated for 30 mins by bioluminescence based NanoBiT assay. It is filed as functional, cell-based. A general note: Arrestin recruitment assays detect the binding of arrestin to an activated receptor.

Series [7] in a line: Half life in C57BL/6 mouse at 1 mg/kg, iv measured upto 24 hrs by LC-MS/MS analysis. The format is ADME, organism-based. The note with it: in vivo.
The nature of series [8]: Cmax in C57BL/6 mouse at 1 mg/kg, iv measured upto 24 hrs by LC-MS/MS analysis. The format is ADME, organism-based. The note with it: in vivo.
The nature of series [9]: AUC infinity in C57BL/6 mouse at 1 mg/kg, iv measured upto 24 hrs by LC-MS/MS analysis. It is filed as ADME, organism-based. The note with it: in vivo.
The nature of series [10]: Apparent volume of distribution in C57BL/6 mouse at 1 mg/kg, iv measured upto 24 hrs by LC-MS/MS analysis. Conditions: in vivo, read-out: Vz. It is filed as ADME, organism-based.
The nature of series [11]: Clearance in C57BL/6 mouse at 1 mg/kg, iv measured upto 24 hrs by LC-MS/MS analysis. It is filed as ADME, organism-based. The note with it: in vivo.
Series [12] is described as follows: Half life in C57BL/6 mouse at 3 mg/kg, po measured upto 24 hrs by LC-MS/MS analysis. The format is ADME, organism-based. The note with it: in vivo.
The nature of series [13]: Cmax in C57BL/6 mouse at 3 mg/kg, po measured upto 24 hrs by LC-MS/MS analysis. The format is ADME, organism-based. Conditions: in vivo.
The nature of series [14]: AUC infinity in C57BL/6 mouse at 3 mg/kg, po measured upto 24 hrs by LC-MS/MS analysis. The format is ADME, organism-based. The note with it: in vivo.
Series [15] can be described thus: Oral bioavailability in C57BL/6 mouse at 3 mg/kg measured upto 24 hrs by LC-MS/MS analysis. It is filed as ADME, organism-based. Conditions: in vivo.
A further series deals with U-937. The series can be described thus: Antimigratory activity against human U-937 cells assessed as inhibition of 7alpha,25-dihydroxycholesterol induced cell migration by CCK-8 method. It is filed as functional, cell-based. A general note: Formazan colour is commonly taken as a measure of viable cells.

T1 sequence (P32249 whole entry): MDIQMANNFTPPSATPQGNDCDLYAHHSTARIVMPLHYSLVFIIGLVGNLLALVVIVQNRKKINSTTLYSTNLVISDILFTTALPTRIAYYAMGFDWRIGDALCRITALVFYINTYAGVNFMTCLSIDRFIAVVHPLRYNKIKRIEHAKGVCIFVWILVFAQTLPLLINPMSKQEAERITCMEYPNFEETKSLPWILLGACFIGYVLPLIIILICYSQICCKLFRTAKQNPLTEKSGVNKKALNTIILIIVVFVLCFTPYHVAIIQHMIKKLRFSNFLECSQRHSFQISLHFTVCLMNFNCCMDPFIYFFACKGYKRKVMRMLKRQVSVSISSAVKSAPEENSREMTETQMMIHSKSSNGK

The term IC50 denotes the concentration at which inhibition is half-maximal. Consider `Nc1nc2ccc(C(=O)N3CCN(C(=O)/C=C/c4ccc(F)c(F)c4)CC3)cc2s1`, for which it took 1250 nM to reach half-maximal inhibition in series [1] (IC50).
As for `O=C(COc1ccc2ccccc2c1)N1CCN(C(=O)Cc2ccccc2)CC1`, in series [2], the microsomal CLint worked out at 301 µL/min/mg.
Consider `Cc1c[nH]c2cc(C(=O)N3CCN(C(=O)/C=C/c4ccc(Br)cc4)CC3)ccc12`, for which half-maximal inhibition in series [1] (IC50) required 18.9 nM.
Consider `COc1cc2c(cc1OC)CN(C(=O)NOCc1ccccc1)CC2`, for which the IC50 in series [3] stood at 13.9 nM.
The compound `Nc1nc2ccc(C(=O)N3CCN(C(=O)/C=C/c4ccc(F)cc4F)CC3)cc2s1` had a half-inhibitory concentration (IC50) in series [1] of 8310 nM.
By EC50 is commonly meant the midpoint of the concentration-response curve. `C[C@H](CCCC(C)(C)O)[C@H]1CCC2C3C(CC[C@@]21C)[C@@]1(C)CC[C@H](O)CC1=C[C@H]3O` (stereo partly drawn): the EC50 is 0.15 nM in series [4], 3.22 nM in [5] and 4.63 nM in [6]. Besides, in [5] (filed as agonist, time 4.5 hrs), the Activity entry was “Dose-Dependent Effect”.
For the compound `Nc1nc2ccc(C(=O)N3CCN(C(=O)/C=C/c4ccc(C(F)(F)F)cc4)CC3)cc2s1`, the half-maximal inhibitory concentration (IC50) in series [1] is 30.1 nM.
On the same count and under the same terms, then `COc1ccc(NC(=O)CC2CCN(C(=O)/C=C/c3ccc(Br)cc3)CC2)cc1`, with 19.7 nM; and `O=C(/C=C/c1ccc(Br)cc1)N1CCN(C(=O)c2ccc3ncsc3c2)CC1`, with 3.05 nM.
For orientation: half-life means the time in which the quantity being followed falls by half. One may read the Cmax as the peak of the concentration-time curve. As a reminder, the AUC(0-inf) is the area under the concentration-time curve extrapolated to infinity. Read a high AUC(0-inf) as more exposure. Usually clearance stands for a measure of how efficiently the substance is removed, as volume per time. As usually defined, the bioavailability is the share of a dose that reaches the circulation, judged against a reference dose that is usually intravenous. The low end stands for little systemic uptake, the high end for much systemic uptake. Take `COc1ccc(C(=O)N2CCN(C(=O)/C=C/c3ccc(Br)cc3)CC2)cc1`: the half-life in [7] is 70.2 min; in series [12], 131 min. Moreover, the maximum concentration (Cmax) in series [8] amounted to 612 ng/mL; in series [13], 640 ng/mL. Further, the area under the curve AUC(0-inf) in series [9] was 966 ng·h/mL; in series [14] it was 2070 ng·h/mL. The Vd in series [10] was 1.75 L/kg. Further, the clearance in series [11] was 17.3 mL/min/kg. This compound showed a bioavailability in series [15] of 71.4%. In the series with U-937, the IC50 was 4.5 nM. Besides, the microsomal CLint in [2] came out at 46 µL/min/mg.
Consider `Cc1cc2ccc(C(=O)N3CCN(C(=O)/C=C/c4ccc(Br)cc4)CC3)cc2[nH]1`, for which inhibition in series [1] was half-maximal at 7.61 nM (IC50).
Turning to `COc1cc(C(C)NC(=O)Cc2c(C)nc(C)[nH]c2=O)cc(OC)c1OC` (stereo not drawn), the IC50 in series [3] amounted to 8.31 nM.
As for `O=C(Nc1nc2ccc(C(=O)N3CCN(C(=O)/C=C/c4ccc(Br)cc4)CC3)cc2s1)C1CC1`, the IC50 in series [1] is 76.9 nM.
The same measure, in the same setting: the result for `CNc1nc2ccc(C(=O)N3CCN(C(=O)/C=C/c4ccc(Br)cc4)CC3)cc2s1` reads 6.23 nM; that for `COc1ccc(C(=O)N2CC3CCC2CN3C(=O)/C=C/c2ccc(Br)cc2)cc1` (stereo not drawn), > 10000 nM; that for `CC(=O)Nc1nc2ccc(C(=O)N3CCN(C(=O)/C=C/c4ccc(Br)cc4)CC3)cc2s1`, 18.9 nM.
On the same count and under the same terms, the result for `COc1ccc(C(=O)NC23CC(NC(=O)/C=C/c4ccc(Br)cc4)(C2)C3)cc1` reads > 10000 nM; that for `O=C(/C=C/c1ccc(Br)cc1)N1CCN(C(=O)c2ccc3nc(C(F)(F)F)sc3c2)CC1`, 2.54 nM.
On the same count and under the same terms, the result for `Nc1nc2ccc(C(=O)N3CCN(C(=O)/C=C/c4ccc(Cl)cc4)CC3)cc2s1` reads 15.9 nM.
In series [1], `CN(C)c1nc2ccc(C(=O)N3CCN(C(=O)/C=C/c4ccc(Br)cc4)CC3)cc2s1` had an IC50 of 54.9 nM.
The compound `COc1ccc(NC(=O)CC2CCN(C(=O)/C=C/c3ccc(Br)cc3)CC2(F)F)cc1` (stereo not drawn) gave an IC50 in series [1] of 54.2 nM.
Same read-out and setting: the result for `N#Cc1ccc(/C=C/C(=O)N2CCN(C(=O)c3ccc4nc(N)sc4c3)CC2)cc1` reads 260 nM; that for `O=C(/C=C/c1ccc(Br)cc1)N1CCN(C(=O)c2ccc3nc(S)[nH]c3c2)CC1`, > 10000 nM; that for `Cn1cnc2cc(C(=O)N3CCN(C(=O)/C=C/c4ccc(Br)cc4)CC3)ccc21`, 442 nM.
Consider `Cn1ccc2ccc(C(=O)N3CCN(C(=O)/C=C/c4ccc(Br)cc4)CC3)cc21`, for which the IC50 in [1] came out at 7.9 nM.
Same read-out and setting: the result for `COc1ccc(C(=O)NCC2(F)CCN(C(=O)/C=C/c3ccc(Br)cc3)CC2)cc1` reads 66.2 nM; that for `Cc1nc2ccc(C(=O)N3CCN(C(=O)/C=C/c4ccc(Br)cc4)CC3)cc2[nH]1`, > 10000 nM; that for `COc1ccc(C(=O)NCC2CCN(C(=O)/C=C/c3ccc(Br)cc3)CC2)cc1`, > 10000 nM.
The same measure, in the same setting: the result for `Nc1nc2ccc(C(=O)N3CCN(C(=O)/C=C/c4ccc(F)cc4)CC3)cc2s1` reads 866 nM; that for `O=C(/C=C/c1ccc(Br)cc1)N1CCN(C(=O)c2ccc3[nH]c(=O)[nH]c3c2)CC1`, > 10000 nM; that for `COc1ccc(C(=O)N2CC3CCC(C2)N3C(=O)/C=C/c2ccc(Br)cc2)cc1`, > 10000 nM.
The same measure, in the same setting: the result for `Nc1nc2ccc(C(=O)N3CCN(C(=O)/C=C/c4ccc5c(c4)OC(F)(F)O5)CC3)cc2s1` reads 43.6 nM; that for `Nc1nc2ccc(C(=O)N3CCN(C(=O)/C=C/c4ccc(C(F)(F)F)c(Cl)c4)CC3)cc2s1`, 74.5 nM; that for `Nc1nc2ccc(C(=O)N3CCN(C(=O)/C=C/c4ccc5c(c4)CCO5)CC3)cc2s1`, 386 nM.
In turn, `COc1ccc(NC(=O)C(F)(F)C2CCN(C(=O)/C=C/c3ccc(Br)cc3)CC2)cc1` displayed an IC50 in [1] of 5.7 nM.
